In ChEMBL document CHEMBL3098081, “Synthesis and anticancer potential of benzothiazole linked phenylpyridopyrimidinones and their diones as mitochondrial apoptotic inducers” (Bioorg Med Chem Lett, 2014) one finds IC50 data, which are given here for 2 compounds.

In assay [1] the test system is MCF7. The assay can be described thus: cells. Conditions: Homo sapiens, MCF7, 48 h.
Description: Cytotoxicity against human MCF7 cells after 48 hrs by MTT assay
The test system of assay [2] is DU-145. Nature of the assay: Cytotoxicity against human DU145 cells after 48 hrs by MTT assay. It is filed as functional, cell-based. Conditions: DU-145, 48 h. Background: Tetrazolium dyes change colour on reduction, which living cells bring about.
Assay [3] can be described thus: Cytotoxicity against human ME180 cells after 48 hrs by MTT assay. It is filed as functional, cell-based. Conditions: ME-180, 48 h.
Assay [4] concerns B16. The assay can be described thus: Cytotoxicity against mouse B16 cells after 48 hrs by MTT assay. It is filed as functional, cell-based. Conditions: B16, 48 h.

Bounds are passed on as bounds.

For the compound `COc1cc(-n2c(=O)n(-c3nc4ccc([N+](=O)[O-])cc4s3)c(=O)c3cccnc32)cc(OC)c1OC`, the IC50 (as a rule, the midpoint of a concentration-inhibition curve) is over 20 µM in assay [1], over 20 µM in assay [2], over 20 µM in assay [3] and 19.9 µM in assay [4].
With `O=c1[nH]cc(F)c(=O)[nH]1` [FLUOROURACIL], the IC50 was determined as 3.5 µM in assay [1], 4.9 µM in assay [3] and 4.2 µM in assay [4].
